Test results taken from PubChem BioAssay (NCI).
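Protocol summary: plate cells (96-well), add compound at 5 concentrations, incubate 48 h, interpolate endpoints linearly. GI50 = concentration required for 50% inhibition of growth. TGI denotes the concentration required for complete inhibition of growth.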

Tests used:
Experiment in all cases: inhibition of tumour cell growth, NCI panel, 48 h
[1] = tested on: SNB-75 CNS
[2] = tested on: SW-620 colon
[3] = tested on: SF-295 CNS
[4] = tested on: NCI-H23 lung
[5] = tested on: MOLT-4 leukemia
[6] = tested on: DU-145 prostate
[7] = tested on: RXF 393 renal
[8] = tested on: TK-10 renal
[9] = tested on: MDA-MB-231 breast
[10] = tested on: MDA-MB-435

SMILES	GI50 [1]	TGI [1]	GI50 [2]	TGI [2]	GI50 [3]	GI50 [4]	GI50 [5]	TGI [5]	GI50 [6]	TGI [6]	GI50 [7]	TGI [7]	GI50 [8]	TGI [8]	GI50 [9]	TGI [9]	GI50 [10]	TGI [10]	TGI [3]	TGI [4]
COc1cc(C2C3=C(COC3=O)N(CCO)c3cc4c(cc32)CCC4)cc(OC)c1OC (stereo not drawn)	0.123 µM	> 32.5 µM	0.126 µM	> 32.5 µM	0.0479 µM	0.0903 µM	0.147 µM	> 32.5 µM	0.0787 µM	0.214 µM	0.0446 µM	0.141 µM	1.56 µM	> 32.5 µM	0.137 µM	> 32.5 µM	0.0279 µM	0.187 µM		
COc1ccc(-c2nccn2-c2cc(OC)c(OC)c(OC)c2)cc1	1.51 µM	> 76.3 µM	1.34 µM	> 100 µM	1.78 µM	9.09 µM	18.3 µM	> 100 µM	13.1 µM	> 100 µM	1.12 µM	26.6 µM	10.7 µM	> 100 µM	7.62 µM	90.3 µM	0.222 µM	3.25 µM	> 68.1 µM	> 100 µM
CCN(CC)CCC(CNc1c2ccc(Cl)cc2nc2ccc(OC)cc12)c1ccccc1 (stereo not drawn)	1.49 µM	2.83 µM	0.538 µM	2.15 µM	1.41 µM	1.5 µM	0.486 µM	5 µM	1.32 µM	6.09 µM	1.23 µM	2.68 µM	0.915 µM	2.8 µM	1.01 µM	2.73 µM	1.5 µM	3.09 µM	3.02 µM	3.55 µM
Cn1cnc2nc(Cl)nc(Cl)c21	2.48 µM	13.4 µM	0.469 µM	15.5 µM	3.57 µM	10.4 µM	5.26 µM	36.2 µM	1.65 µM	4.87 µM	2.39 µM	7.09 µM	3.84 µM	26.2 µM	4.26 µM	33.2 µM	0.445 µM	13.7 µM	> 100 µM	34.2 µM
Cc1ccc(S(=O)(=O)NC(CCCCN)C(=O)CCl)cc1 (stereo not drawn)	> 100 µM	> 100 µM	43.1 µM	> 100 µM	27.2 µM	> 100 µM	86.6 µM	> 100 µM	81.2 µM	> 100 µM	54.2 µM	> 100 µM	90.5 µM	> 100 µM	> 100 µM	> 100 µM	22.2 µM	67.9 µM	77 µM	> 100 µM
C=CC(=O)N1CC[C@@H](Oc2nc(Nc3ccc(N4CCC(N5CCN(C)CC5)CC4)cc3)c(C(N)=O)nc2CC)C1	> 100 µM	> 100 µM	> 100 µM	> 100 µM	> 100 µM	> 100 µM	> 100 µM	> 100 µM	> 100 µM	> 100 µM	> 100 µM	> 100 µM	> 100 µM	> 100 µM	> 100 µM	> 100 µM	> 100 µM	> 100 µM	> 100 µM	> 100 µM
Cc1cccc(NC(=O)c2sc3nc4c(cc3c2N)CCC4)c1C	0.189 µM	0.815 µM	0.359 µM	> 100 µM	0.245 µM	0.749 µM	0.576 µM	> 100 µM	0.407 µM	13.9 µM	0.18 µM	0.669 µM	0.74 µM	26.5 µM	0.594 µM	29.3 µM	0.0519 µM	0.284 µM	11.1 µM	> 100 µM
C/C=C\C(C)=C/C(C)C(=O)CC(O)CC1CC(=O)NC(=O)C1 (stereo not drawn)		68.2 µM		> 100 µM				> 28.2 µM		> 100 µM		> 100 µM		> 100 µM		> 100 µM		> 100 µM	> 100 µM	> 100 µM
COC(=O)c1cc2c([nH]c3ccccc32)c(-c2nc3cc(N(S(=O)(=O)c4ccc(C)cc4)S(=O)(=O)c4ccc(C)cc4)c(OC)cc3cc2CO)n1	33.5 µM	98.7 µM	> 100 µM	> 100 µM	> 100 µM	> 100 µM	10.6 µM	25.7 µM	> 100 µM	> 100 µM	> 100 µM	> 100 µM	> 100 µM	> 100 µM	78.6 µM	> 100 µM	> 100 µM	> 100 µM	> 100 µM	> 100 µM
Oc1c(Br)cc(Br)c2cccnc12	10.7 µM	> 100 µM	4.58 µM	72.8 µM	2.26 µM	3.56 µM	3 µM	8.49 µM	3.72 µM	40.3 µM	4.13 µM	23.3 µM	14.2 µM	> 100 µM	4.43 µM	28.9 µM	3.62 µM	> 100 µM	6.53 µM	23.6 µM
